Results taken from publication PMC8305768, “Design, Synthesis and Antiparasitic Evaluation of Click Phospholipids” (Molecules, 2021).
Counter-ions that a name gives are not always drawn. Like-named read-outs stand apart in the source and are kept apart here.

Experiments:
[1] = tested on: A549 cells; test: Cytotoxicity assay A549 (CellTiter-Glo); format: cell-based, human; details: compounds 10 μM; miltefosine 10 μM or 1 μM
Source text: Early ADMET profiling: The early ADMET profiling of the new derivatives involved a group of assays widely used in drug development as part of the preclinical in vitro toxicity studies. In particular our panel included hERG inhibition, five cytochromes P450 (CYP1A2, CYP2C9, CYP2C19, CYP2D6 and CYP3A4), two cell-lines (A549, epithelial human lung adenocarcinoma, WI38 and foetal lung fibroblasts), Aurora B kinase and mitochondrial toxicity, in addition to the parasite relevant toxicity against THP1 macrophages. The compounds were tested at 10 μΜ, whilst the miltefosine control was tested at 10 μΜ or 1 μM. The toxicity of the new click phospholipids is depicted in Figure 3 in a traffic light format (from red through yellow to green for decreasing ADMET liabilities).
Cytotoxicity assay: A549 cells and WI-38 cells were grown on surface-modified T175 cell culture flasks in Dulbecco’s modified Eagle medium with 10% foetal calf serum (FCS), streptomycin (100 μg/mL) and 100 U/mL penicillin G. At about 80% confluency, cells were washed, trypsinized, resuspended and counted in RPMI-1640 medium before seeding (in triplicate) into white 384-well microtiter plates (20 μL) at 500 cells/well and incubated at 37 °C in the presence of 5% CO2 for 24 h. A total of 20 μL/well of CellTiter-Glo (CTG) reagent (Promega Corp., Madison, WI, USA) was added to each well, and plates were read using an EnVision Multilabel 2103 Reader after a 10-min incubation in the dark. Dose–response assays for compounds made use of 11-point curves. Each test compound (200 nL of 10 mM top concentration in 100% v/v DMSO) was added to cells seeded in polystyrene 384-well cell culture microtiter plates using the Echo 550 Liquid Handler and read after 24 h of incubation at 37 °C in the presence of 5% CO2 using CTG as described above. The compounds/positive control (paclitaxel with final concentration of 10 μM and 1% v/v DMSO) and no compound (final 1% v/v DMSO) were added into the 384-well plates (200 nL/well; 1% v/v DMSO) using the Echo 550 Liquid Handler. The raw luminescence signal of each sample was converted into the percentage of cell growth.

[2] = tested on: mitochondria of 786-0 cells; test: Mitochondrial toxicity assay (MitoTracker Red CMXRos, 786-0 cells); format: cell-based; details: compounds 10 μM, miltefosine 10 μM or 1 μM
Protocol: Mitochondrial toxicity assay: This assay made use of the MitoTracker Red CMXRos dye (Thermo Fischer Scientific, Waltham, MA, USA), which stains the mitochondria in live cells and its accumulation is dependent on the presence of a membrane potential. The renal carcinoma 786-0 cell line was used for mitochondrial toxicity screening. Cells were harvested from a 75 cm^2 flask at 80% confluency by washing once with 5 mL of rt PBS and incubating with 1 mL of 0.05% v/v trypsin/0.02% v/v EDTA for 3 min. Cells were suspended in 10 mL of prewarmed cell culture media (RPMI-1 640 supplemented with 10% v/v FCS, 100 U/mL penicillin and 100 μg/mL streptomycin) and counted using a Scepter (Merck Millipore, Darmstadt, Germany). The 786-0 cells were diluted to 75,000 cells/mL and 20 μL of this suspension added to each well of a 384-well plate. Cells were incubated for 36 h at 37 °C and 5% CO2, and compounds were added using a predilution plate. The positive control was valinomycin at a final concentration of 1 μM, with the negative control being DMSO at the same concentration. Ten microliters of compounds and controls were added to cells and incubated for 6 h at 37 °C and 5% CO2 in a humidity controlled atmosphere. After incubation, 10 μL of a 200 nM solution of MitoTracker Red CMXRos in prewarmed cell culture media was added to each well, and the 786-0 cells were incubated for an additional 45 min at 37 °C and 5% CO2. MitoTracker Red CMXRos uptake was measured using an Opera Imaging System. To facilitate automatic image analysis, the layout containing the compound area and the valinomycin and DMSO control areas were created and stored. A sublayout of five evenly dispersed fields per well were used. These settings also included a measurement height of 1 μm, which was stored in an exposure file format. By using the stored settings and files, an automated run was repeatedly created and executed. The images were transferred to a file server and uploaded into Columbus 2.4.0 (PerkinElmer, Waltham, MA. USA) using the built-in helper function and analysed therein.

[3] = tested on: L. infantum (MHOM/MA/67/ITMAP-263) intracellular amastigotes; test: Activity against L. infantum MHOM/MA/67/ITMAP-263 intramacrophage amastigotes (luciferase, THP-1); format: cell-based, Leishmania infantum; details: for inhibition at 10 µM / inhibition at 1 µM / IC50: Leishmania infantum; for inhibition at 10 µM / inhibition at 1 µM: THP-1; for inhibition at 10 µM: read-out: Mean % Inhibition ± SD at 10μM; for inhibition at 1 µM: read-out: Mean % Inhibition ± SD at (1 μM) (converted); for IC50: THP-1, 72 h, read-out: L. infantum (MHOM/MA/67/ITMAP-263) Intracellular Amastigotes IC50 ± SD
Protocol: A cloned line of L. infantum (MOM/ MA671TMAP263) promastigotes were maintained in RPMI 1640 medium supplemented with 10% heat-inactivated foetal bovine serum (FBS), 2 mM L-glutamine, 20 mM HEPES and 1% Penn/Strep. Maintenance of promastigotes was done in T-25 flasks at 26 °C by subpassage at […] every 5−6 days. L. infantum axenic amastigotes expressing episomal luciferase were maintained in MAA/20 (axenic amastigote medium) at 37 °C under a 5% CO2 environment with subpassages every 5 days. LUC-positive parasites were selected by addition of geneticin sulphate (G418) to the culture at 60 μg/mL.
The efficacy of compounds against L. infantum intracellular amastigotes was determined according to the literature with slight modifications. Briefly, 1 × 10^6 THP-1 cell/mL were seeded in a 96 well flat bottom plate (100 µL/well) and differentiated into macrophages by addition of 20 ng/mL of phorbol-myristate 13-acetate (PMA, Sigma, Saint Louis, MI, USA) for 18 h, followed by replacement with fresh medium for 24 h. Then these cells were infected with luciferase-expressing L. infantum axenic amastigotes in a macrophage:amastigotes ratio of 1:10 for 4 h at 37 °C, 5% CO2. Non-internalized parasites were washed and compounds were added at different concentrations in a final volume of 100 µL. After 72 h of incubation, the media was substituted by 100 µL of PBS. Then of 25 µL of Glo-lysis buffer from the Steady-Glo Luciferase Assay System (Promega, Madison, WI, USA) was added mixed and incubated for 10 min with agitation at 100 rpm. Finally, 30 µL of the Steady-Glo reagent (Promega, Madison, WI, USA) was then added to the plate and was incubated for 15 min with agitation at 100 rpm and then the content of each well was transferred to white-bottom 96-well plates. Luminescence intensity was read using a Synergy 2 Multi-Mode Reader (Biotek, Winooski, VT, USA). The antileishmanial effect was evaluated by the determination of the IC50 value (concentration required to inhibit growth in 50%) and calculated by the non-linear regression analysis using GraphPad Prism version 8.1.1 for Windows (GraphPad Software, San Diego CA, USA).

[4] = CC50 THP-1 / IC50 L. infantum MHOM/MA/67/ITMAP-263

| SMILES | % cell growth ± SD at 10 μΜ A549 [1] [%] | % toxicity ± SD at 10 μΜ Mitochondria [2] | inhibition at 10 µM ([3]; 10 μM, 72 h, N.A. = inactive) [%] | inhibition at 1 µM ([3]; 72 h) [%] | Selectivity Index CC50/IC50 [3, 4] | IC50 [3] [µM] | Mean % Inhibition ± SD at 10μM ([3]; 10 μM, 72 h, N.A. = inactive) | Selectivity Index CC50/IC50 [3] |
| --- | --- | --- | --- | --- | --- | --- | --- | --- |
| C[N+](C)(C)CCOP(=O)([O-])OCCCCCn1cc(CCCCCCCCN)nn1 [Compound 35, 5-(4-(8-aminooctyl)-1H-1,2,3-triazol-1-yl)pentyl (2-(trimethylammonio)ethyl) phosphate inner salt] | 100.96 | 6.58% |  |  |  |  |  |  |
| CCCCCCCCCCc1cc(CCCCCCCCCCOP(=O)([O-])OCC[N+](C)(C)C)no1 [Compound 41, 10-(5-decylisoxazol-3-yl)decyl (2-(trimethylammonio)ethyl) phosphate inner salt] | 85.15 | 2.99% | 93.7 ± 10 |  |  |  |  |  |
| CCCCCCCc1nnc(CCCCCCCCCCOP(=O)([O-])OCC[N+](C)(C)C)o1 [Compound 65, 10-(5-heptyl-1,3,4-oxadiazol-2-yl)decyl (2-(trimethylammonio)ethyl) phosphate inner salt] | 90.48 | 40.25% | 92.9 ± 5 | 4.8 |  |  |  |  |
| C[N+](C)(C)CCOP(=O)([O-])OCCCCCn1cc(CCCCCCCCNC(=O)OCc2ccccc2)nn1 [Compound 31, 5-(4-(8-(((benzyloxy)carbonyl)amino)octyl)-1H-1,2,3-triazol-1-yl)pentyl (2-(trimethylammonio)ethyl) phosphate inner salt] | 108.64 | 5.07% |  |  |  |  |  |  |
| CCCCCCCCCCCc1nnc(CCCCCCCCCCOP(=O)([O-])OCC[N+](C)(C)C)o1 [Compound 66, 2-(trimethylammonio)ethyl (10-(5-undecyl-1,3,4-oxadiazol-2-yl)decyl) phosphate inner salt] | 90.83 | 19.78% | 94.2 ± 3 | 3.3 |  |  |  |  |
| C[N+](C)(C)CCOP(=O)([O-])OCCCCCCCCCCCn1cc(CC2CCCCC2)nn1 [Compound 29, 11-(4-(cyclohexylmethyl)-1H-1,2,3-triazol-1-yl)undecyl (2-(trimethylammonio)ethyl) phosphate inner salt] | 120.63 | 1.08% | 43 ± 1 |  |  |  |  |  |
| C[N+](C)(C)CCOP(=O)([O-])OCCCCCCCCCCCn1cc(CCCCCCCCNC(=O)OCc2ccccc2)nn1 [Compound 32, 11-(4-(8-(((benzyloxy)carbonyl)amino)octyl)-1H-1,2,3-triazol-1-yl)undecyl (2-(trimethylammonio)ethyl) phosphate inner salt] |  |  | 5 ± 18 |  |  |  |  |  |
| CCCCCc1cn(CCCCCCCCCCCOP(=O)([O-])OCC[N+](C)(C)C)nn1 [Compound 25, 11-(4-pentyl-1H-1,2,3-triazol-1-yl)undecyl (2-(trimethylammonio)ethyl) phosphate inner salt] | 114.88 | 11.05% | 32 ± 19 |  | >3 | 34.3 ± 19.4 |  |  |
| C[N+](C)(C)CCOP(=O)([O-])OCCCCCCCCCCCn1cc(CC2CCCC2)nn1 [Compound 28, 11-(4-(cyclopentylmethyl)-1H-1,2,3-triazol-1-yl)undecyl (2-(trimethylammo nio)ethyl) phosphate inner salt] | 121.51 | 8.99% |  |  |  |  | inactive |  |
| C[N+](C)(C)CCCOP(=O)([O-])OCCCCCCCCCCCn1cc(CC2CCCCC2)nn1 [Compound 33, 11-(4-(cyclohexylmethyl)-1H-1,2,3-triazol-1-yl)undecyl (3-(trimethylammonio)propyl) phosphate inner salt] | 114.14 | -1 ± 4.35% | 12 ± 5 |  |  |  |  |  |
| CCCCCCCCCCCCCCCCOP(=O)([O-])OCC[N+](C)(C)C [Miltefosine, hexadecylphosphocholine, reference compound] | 95.80 | 3.99% |  |  |  | 3.2 ± 1.4 |  | 4.9 |
| CCCCCCCCc1noc(CCCCCOP(=O)([O-])OCC[N+](C)(C)C)n1 [Compound 53, 5-(3-octyl-1,2,4-oxadiazol-5-yl)pentyl (2-(trimethylammonio)ethyl) phosphate inner salt] | 87.74 | –1.08% | 98.4 ± 1 | 34.6 |  |  |  |  |
| CCCCCCCCc1noc(CCCCCCCCCCOP(=O)([O-])OCC[N+](C)(C)C)n1 [Compound 54, 10-(3-octyl-1,2,4-oxadiazol-5-yl)decyl (2-(trimethylammonio)ethyl) phosphate inner salt] | 85.82 | 8.56% | 100.4 ± 1 | 67.1 | 13.6 | 0.8 ± 0.18 |  |  |
| C[N+](C)(C)CCOP(=O)([O-])OCCCCCCCCCCCn1cc(CCCCCCCCC(=O)O)nn1 [Compound 34, 11-(4-(8-carboxyoctyl)-1H-1,2,3-triazol-1-yl)undecyl (2-(trimethylammonio)ethyl) phosphate inner salt] |  |  | 10 ± 9 |  |  |  |  |  |
